Assay results reported in article PMC7764069 (Microorganisms, 2020).
Like-named read-outs stand apart in the source and are kept apart here.

How the values were obtained:
[1] = system: splenic T, B and NK cells; details: for frequency of proliferating B cells: day 4 post infection; for frequency of proliferating B cells / percentage of proliferating T cells: CP 100 mg/kg i.p.
A(H1N1)pdm09 virus = system: A(H1N1)pdm09 virus; set-up: method as in PMID 31837268; details: nude mice, BXM 10 mg/kg once daily for 28 days; untreated controls 5 days; cited from earlier work
[2] = BXA in humans; mimicked by 15 mg/kg BXM BID for 5 days orally in immunocompetent mice; cited from earlier work

## O=P1(N(CCCl)CCCl)NCCCO1 (stereo not shown) [CP, cyclophosphamide]
[1]; following CP administration, day 4 p.i.
  NK proliferative capacity: no significant decline
[1]; infected animals, without CP 94.7%
  frequency of proliferating B cells: 40.7%
[1]; infected mice, day 4 p.i., without CP […]
  percentage of proliferating T cells: 72.6%
[1]; uninfected mice, day 4 p.i., without CP 92.2%
  percentage of proliferating T cells: 63.1%
[1]; uninfected mice, without CP 82.5%
  frequency of proliferating B cells: 36.2%

## COC(=O)OCOc1c2n(ccc1=O)N([C@@H]1c3ccccc3SCc3c1ccc(F)c3F)[C@@H]1COCCN1C2=O [BXM, baloxavir marboxil]
A(H1N1)pdm09 virus
  median survival time: 49 days

## O=C1c2c(O)c(=O)ccn2N([C@@H]2c3ccccc3SCc3c2ccc(F)c3F)[C@@H]2COCCN12 [BXA, baloxavir acid]
[2]
  target plasma concentration: 6.85 ng/mL
